# “And” between values parts separate entries of the source, which are not always exact repeats. Equal entries are not always repeated.
# Test system: self-administration (addictive potential)
# Assay: I.v. self-administration of CP612, between-session progressive ratio and demand curve
# Method: We tested the addictive potential of CP612 by examining the extent to which rats are willing to work to obtain CP612. Rats were initially trained to self-administer either saline, morphine (500 μg/kg/i.v. infusion), or 1 of 3 different doses of CP612 (75, 150, or 300 μg/kg/i.v. infusion) for 4 days at fixed ratio 1 (FR1, where 1 nose poke delivers 1 infusion).
# During the second phase, the ratio to obtain an infusion increased geometrically every other day (FR1, FR3, FR6, FR12, FR24, FR48, and FR96).
# Data (number of self-infusions) were also fitted in an economic-demand curve, which provides an estimate of the motivation to obtain drugs and their addictive potential ([20]). We measured elasticity (α), which is the relative change in consumption as a function of price (i.e., ratio of nose pokes required to obtain an infusion). Behavior is considered “inelastic” when consumption is insensitive to price and “elastic” when consumption is sensitive to price. We also measured Pmax, which is the price at which intake switches from inelastic to elastic. […] (Figure 8B).
# Rats not immediately anesthetized were eliminated from the study.
# Following this initial acquisition phase at FR1, the ratio to obtain the drug was increased geometrically every other day: FR3 (3 nose pokes are required to obtain 1 infusion of morphine), FR6, FR12, FR24, FR48, and FR96. This allows for analysis of drug consumption as a function of “price” using demand curves for behavioral economics, which can estimate the motivation to obtain drugs and their “addictive potential” ([20]). For this, data from each rat were fitted to the equation log Q = log Q0 + k (e ^–α(Q0 ^C) – 1), where Q represents consumption (number of self-infusions), and Q0 represents the level of consumption at the lowest price. C represents price for the drug (i.e., the ratio), and k is set to a constant accounting for the estimated range of consumption in logarithmic units (k = 4 in these studies). The symbol α is the relative change in consumption across changes in price (ratio). Behavior is considered “inelastic” when consumption is insensitive to price (i.e., the curve is flat, and consumption is maintained despite increases in price), and it switches to “elastic” when consumption is sensitive to price (i.e., when the curve is steep and consumption declines with increases in price). […] We also compared groups for their average intake in the consumption-price curves by measuring α (elasticity) and Pmax.
compound,measurement,setting,value
N[C@H](CNC(=O)C1(c2ccc(Cl)cc2)CCCC1)c1ccc(C(=O)Nc2ccncc2)cc1 [CP612],AVG Latency (FR1_D1 to D4),"CP612-High, individual rat",0.277 and 0.6 and 2.3 and 1.8 and 0.8 and 0.9 and 1.0
same,AVG Latency (FR1_Last 2 FR1 days),"CP612-High, individual rat",0.051 and 0.179 and 0.9 and 1.8 and 0.219 and 0.171
same,AVG Latency (FR1_Last 4 FR1 days),"CP612-High, individual rat",0.076 and 0.283 and 1.5 and 1.8 and 0.8 and 0.9 and 0.53
same,AVG Latency (FR3),"CP612-High, individual rat",1.2 and 0.116 and 2.8 and 0.5 and 0.236 and 1.4 and 0.326
same,AVG Latency (FR6),"CP612-High, individual rat",0.64 and 0.4 and 0.643 and 1.9 and 0.8 and 2.5 and 0.6
same,AVG Latency (FR12),"CP612-High, individual rat",14.4 and 2.6 and 0.5 and 4.0 and 0.6 and 2.1
same,AVG Latency (FR24),"CP612-High, individual rat",1.9 and 0.9 and 0.3 and 0.6 and 2.3 and 1.3
same,AVG Latency (FR48),"CP612-High, individual rat",14.3 and 0.9 and 1.1 and 1.9 and 18.8 and 1.2
same,AVG Latency (FR96),"CP612-High, individual rat",13.6 and 1.5 and 0.9 and 12.9 and 2.4 and 0.8
same,D1 Latency (FR1),"CP612-High, individual rat",0.857 and 1.7 and 5.4 and 2.9 and 0.6 and 0.743
same,D1 Latency (FR3),"CP612-High, individual rat",2.0 and 0.108 and 0.043 and 0.6 and 0.3 and 0.19 and 0.232
same,D1 Latency (FR6),"CP612-High, individual rat",0.65 and 0.1 and 0.9 and 0.7 and 0.8 and 3.8 and 0.275
same,D1 Latency (FR12),"CP612-High, individual rat",27.0 and 1.2 and 0.527 and 5.7 and 0.283 and 3.2 and 2.2
same,D1 Latency (FR24),"CP612-High, individual rat",1.3 and 0.7 and 0.338 and 0.9 and 1.7 and 1.4
same,D1 Latency (FR48),"CP612-High, individual rat",16.8 and 0.4 and 0.255 and 0.142 and 1.1 and 36.4 and 0.743
same,D1 Latency (FR96),"CP612-High, individual rat",4.4 and 1.8 and 0.643 and 3.1 and 3.3 and 0.647 and 0.7
same,D2 Latency (FR1),"CP612-High, individual rat",0.077 and 0.4 and 2.0 and 0.6 and 2.2 and 0.9
same,D2 Latency (FR3),"CP612-High, individual rat",0.5 and 0.125 and 5.6 and 0.4 and 0.17 and 2.6
same,D2 Latency (FR6),"CP612-High, individual rat",0.6 and 0.7 and 0.4 and 3.1 and 0.8 and 1.2 and 0.9
same,D2 Latency (FR12),"CP612-High, individual rat",1.8 and 4.1 and 0.5 and 2.3 and 0.9 and 1.0 and 2.9
same,D2 Latency (FR24),"CP612-High, individual rat",2.5 and 1.2 and 0.257 and 0.283 and 0.355 and 2.9
same,D2 Latency (FR48),"CP612-High, individual rat",11.8 and 1.4 and 1.9 and 3.7 and 1.1 and 1.2 and 1.7
same,D2 Latency (FR96),"CP612-High, individual rat",22.7 and 1.2 and 1.1 and 1.6 and 0.9 and 2.4
same,D3 Latency (FR1),"CP612-High, individual rat",0.125 and 0.22 and 1.4 and 2.0 and 0.063 and 1.3 and 0.185
same,D4 Latency (FR1),"CP612-High, individual rat",0.05 and 0.138 and 0.457 and 1.7 and 0.375 and 0.547 and 0.158
same,last Latency (FR1),"CP612-High, individual rat",0.052 and 0.138 and 0.457 and 1.7 and 0.375 and 0.547 and 0.158
same,last-1 Latency (FR1),"CP612-High, individual rat",0.05 and 0.22 and 1.4 and 2.0 and 0.063 and 1.3 and 0.185
same,last-2 Latency (FR1),"CP612-High, individual rat",0.125 and 0.4 and 2.0 and 0.6 and 2.2 and 0.9
same,last-3 Latency (FR1),"CP612-High, individual rat",0.077 and 0.4 and 2.0 and 2.9 and 0.6 and 0.9
same,AVG Latency (FR1_D1 to D4),"CP612-Low, individual rats",4.9 and 0.7 and 2.4 and 1.7 and 1.1
same,AVG Latency (FR1_Last 2 FR1 days),"CP612-Low, individual rats",0.358 and 0.6 and 0.284 and 0.9 and 0.159 and 1.0 and 0.2 and 1.2
same,AVG Latency (FR1_Last 4 FR1 days),"CP612-Low, individual rats",1.9 and 0.8 and 0.222 and 0.443 and 1.2 and 0.5 and 0.6
same,AVG Latency (FR3),"CP612-Low, individual rats",0.8 and 1.6 and 4.5 and 0.452 and 0.377 and 4.0 and 0.095 and 0.182
same,AVG Latency (FR6),"CP612-Low, individual rats",1.5 and 1.4 and 2.2 and 0.323 and 0.9 and 0.163 and 0.233
same,AVG Latency (FR12),"CP612-Low, individual rats",1.6 and 0.566 and 0.8 and 0.4 and 2.4 and 1.9 and 1.0
same,AVG Latency (FR24),"CP612-Low, individual rats",3.5 and 0.6 and 1.0 and 0.8 and 0.426 and 5.1 and 1.2 and 0.7
same,AVG Latency (FR48),"CP612-Low, individual rats",0.7 and 2.3 and 2.2 and 0.372 and 0.844 and 2.6 and 0.335 and 1.6
same,AVG Latency (FR96),"CP612-Low, individual rats",1.1 and 0.176 and 4.5 and 0.551 and 1.2 and 0.0585 and 2.6 and 0.259
same,D1 Latency (FR1),"CP612-Low, individual rats",12.2 and 0.368 and 2.4 and 7.3 and 1.0 and 3.8 and 1.9 and 0.7
same,D1 Latency (FR3),"CP612-Low, individual rats",0.425 and 0.5 and 1.0 and 0.458 and 0.7 and 4.6 and 0.155 and 0.173
same,D1 Latency (FR6),"CP612-Low, individual rats",1.3 and 2.2 and 0.473 and 0.533 and 0.9 and 0.183 and 0.32
same,D1 Latency (FR12),"CP612-Low, individual rats",0.9 and 2.3 and 0.7 and 1.3 and 0.66 and 1.0 and 0.6
same,D1 Latency (FR24),"CP612-Low, individual rats",6.2 and 0.9 and 1.5 and 0.7 and 8.8 and 2.1 and 0.19
same,D1 Latency (FR48),"CP612-Low, individual rats",1.1 and 1.6 and 3.8 and 0.332 and 0.655 and 0.6 and 0.368 and 0.073
same,D1 Latency (FR96),"CP612-Low, individual rats",0.8 and 0.108 and 8.1 and 0.57 and 0.062 and 1.6 and 0.143
same,D2 Latency (FR1),"CP612-Low, individual rats",4.7 and 1.8 and 0.14 and 0.425 and 1.0 and 0.13 and 1.5 and 0.027
same,D2 Latency (FR3),"CP612-Low, individual rats",1.1 and 2.8 and 7.9 and 0.445 and 0.067 and 3.5 and 0.035 and 0.2
same,D2 Latency (FR6),"CP612-Low, individual rats",1.7 and 0.562 and 4.0 and 0.658 and 0.112 and 0.9 and 0.143 and 0.147
same,D2 Latency (FR12),"CP612-Low, individual rats",2.2 and 0.8 and 0.4 and 0.355 and 0.1 and 3.4 and 2.9 and 1.5
same,D2 Latency (FR24),"CP612-Low, individual rats",0.76 and 0.282 and 0.4 and 0.9 and 0.148 and 1.5 and 0.188 and 1.2
same,D2 Latency (FR48),"CP612-Low, individual rats",0.337 and 3.0 and 0.6 and 0.4 and 1.0 and 4.6 and 0.3 and 3.2
same,D2 Latency (FR96),"CP612-Low, individual rats",1.5 and 0.245 and 0.8 and 0.533 and 1.6 and 0.055 and 3.5 and 0.375
same,D3 Latency (FR1),"CP612-Low, individual rats",2.1 and 0.145 and 0.175 and 0.9 and 0.5 and 2.5 and 0.8 and 0.017
same,D4 Latency (FR1),"CP612-Low, individual rats",0.433 and 0.6 and 0.143 and 1.0 and 0.3 and 0.258 and 0.24 and 2.0
same,last Latency (FR1),"CP612-Low, individual rats",0.283 and 0.653 and 0.332 and 0.9 and 0.03 and 1.7 and 0.163 and 0.342
same,last-1 Latency (FR1),"CP612-Low, individual rats",0.433 and 0.6 and 0.237 and 1.0 and 0.3 and 0.258 and 0.24 and 2.0
same,last-2 Latency (FR1),"CP612-Low, individual rats",2.1 and 0.145 and 0.143 and 0.9 and 0.5 and 2.5 and 0.8 and 0.017
same,last-3 Latency (FR1),"CP612-Low, individual rats",4.7 and 1.8 and 0.175 and 0.425 and 1.0 and 0.13 and 0.8 and 0.017
same,AVG Latency (FR1_D1 to D4),"CP612-Mid, individual rat",1.3 and 0.461 and 0.5 and 1.6
same,AVG Latency (FR1_Last 2 FR1 days),"CP612-Mid, individual rat",0.475 and 0.9 and 0.261 and 0.6 and 3.4
same,AVG Latency (FR1_Last 4 FR1 days),"CP612-Mid, individual rat",0.356 and 0.538 and 0.317 and 0.363 and 1.9
same,AVG Latency (FR3),"CP612-Mid, individual rat",0.8 and 0.466 and 1.2 and 0.0825
same,AVG Latency (FR6),"CP612-Mid, individual rat",0.633 and 1.0 and 0.8 and 3.0 and 4.9
